Test systems include NCI-H460 lung; KM12 colon; BT-549 breast; 786-0 renal; SF-295 CNS; HOP-92 NSCLC; RXF 393 renal; UACC-62 melanoma; SK-MEL-2 melanoma; NCI/ADR-RES ovarian; SK-MEL-5 melanoma.
Test in all cases: inhibition of tumour cell growth, NCI panel, 48 h

The results in this text go back to PubChem BioAssay (NCI).

SMILES strings stand for the structures.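 Method: 48-hour compound exposure of cells in 96-well plates, five concentrations, linear interpolation of endpoints. TGI marks complete inhibition of growth.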 Bounds are passed on as bounds.

`CC(C)c1ccc(/C=C2/C=C(c3ccc4ccccc4c3)OC2=O)cc1`: the TGI in the test on NCI-H460 lung, with KM12 colon, in the test with BT-549 breast, in the test with 786-0 renal, with SF-295 CNS and in the test with HOP-92 NSCLC was above 100 µM each time. Also, the TGI in the test on RXF 393 renal is above 100 µM; with UACC-62 melanoma it was above 100 µM; in the test with SK-MEL-2 melanoma it was 39.6 µM; with NCI/ADR-RES ovarian, above 100 µM; with SK-MEL-5 melanoma it was 29 µM.

In the case of `Cc1ccccc1-n1c(=O)c2ncn(CCCl)c2n(-c2ccccc2C)c1=S`, the TGI in the test with NCI-H460 lung, in the test with KM12 colon, with BT-549 breast, in the test on 786-0 renal, in the test with SF-295 CNS and in the test with HOP-92 NSCLC was above 100 µM throughout. In addition, the TGI in the test on RXF 393 renal, in the test on UACC-62 melanoma, with SK-MEL-2 melanoma, in the test on NCI/ADR-RES ovarian and with SK-MEL-5 melanoma was above 100 µM in each case.

On to `CCC[C@@H](O)C[C@@H]1CCC[C@H](C[C@@H](O)CC)N1C`, for which the TGI in the test with KM12 colon is above 100 µM; with BT-549 breast, above 100 µM; with 786-0 renal, above 100 µM; in the test on SF-295 CNS it was above 100 µM; in the test on HOP-92 NSCLC, 5.06 µM; in the test on UACC-62 melanoma it was above 100 µM. Also, the TGI in the test with SK-MEL-2 melanoma, in the test on NCI/ADR-RES ovarian and in the test on SK-MEL-5 melanoma was above 100 µM each time.

Consider `COC(=O)[C@H](Cc1c[nH]c2ccccc12)NP(=O)(O)OCC1C=CC(n2cc(C)c(=O)[nH]c2=O)O1` (some centres undefined), for which the TGI in the test on KM12 colon, in the test with BT-549 breast, in the test on 786-0 renal, in the test with HOP-92 NSCLC, in the test on UACC-62 melanoma and in the test on SK-MEL-2 melanoma was above 100 µM each time. Further, the TGI with NCI/ADR-RES ovarian and in the test on SK-MEL-5 melanoma was above 100 µM each time.

As to `CC(=O)O[C@H]1C(=O)[C@]2(C)[C@@H](OC(=O)OCCC(O)CO)C[C@H]3OC[C@@]3(OC(C)=O)[C@H]2[C@H](OC(=O)c2ccccc2)[C@]2(O)C[C@H](OC(=O)[C@H](O)[C@@H](NC(=O)c3ccccc3)c3ccccc3)C(C)=C1C2(C)C` (some centres undefined), the TGI with NCI-H460 lung amounted to 2.05 µM; with BT-549 breast it was 15.9 µM; in the test on 786-0 renal it was 6.05 µM; with SF-295 CNS, 1.12 µM; in the test with HOP-92 NSCLC it was 25.2 µM; in the test with RXF 393 renal it was 17.9 µM. Moreover, the TGI with UACC-62 melanoma is 24.8 µM; in the test on SK-MEL-2 melanoma, 46.8 µM; with NCI/ADR-RES ovarian it was above 100 µM; with SK-MEL-5 melanoma, 13.1 µM.

Consider `O=S1(=O)NC(=NCc2c[nH]c3ccccc23)N(c2ccccc2)c2ccncc21`, for which the TGI in the test on NCI-H460 lung, in the test on KM12 colon, in the test on BT-549 breast, in the test with 786-0 renal, with SF-295 CNS and with HOP-92 NSCLC was above 100 µM in each case. The TGI in the test on RXF 393 renal, in the test on UACC-62 melanoma, in the test on SK-MEL-2 melanoma, in the test on NCI/ADR-RES ovarian and in the test on SK-MEL-5 melanoma was above 100 µM in each case.

For the molecule `CC1=CC2C(O1)C1C(=O)C=CC(=O)C1=CC2[N+](=O)[O-]` (centres undefined), the TGI with NCI-H460 lung is 36.4 µM; with KM12 colon, above 55.9 µM; in the test with BT-549 breast, 29.6 µM; in the test on 786-0 renal, 27.6 µM; with SF-295 CNS, 34.5 µM; with HOP-92 NSCLC it was 6.2 µM. Further, the TGI was 28.2 µM in the test with RXF 393 renal; 36.2 µM in the test with UACC-62 melanoma; 57.2 µM with SK-MEL-2 melanoma; above 77.9 µM in the test with NCI/ADR-RES ovarian; 38.2 µM in the test with SK-MEL-5 melanoma.

Take `CC[C@@]1(C[C@H]2C[C@@]3(C(=O)OC)c4[nH]c5ccccc5c4CCN3C2=O)COC2(CCCCC2)O1`: the TGI in the test with NCI-H460 lung is above 100 µM; with KM12 colon, 66.9 µM; with BT-549 breast, above 100 µM; in the test on 786-0 renal it was above 100 µM; in the test on SF-295 CNS, above 100 µM; with RXF 393 renal, above 100 µM. For the same molecule, the TGI in the test with UACC-62 melanoma was above 100 µM; in the test with SK-MEL-2 melanoma, 96.3 µM; with NCI/ADR-RES ovarian, above 100 µM; in the test with SK-MEL-5 melanoma it was 41.2 µM.

Consider `CCNC(=S)N/N=C/c1cc([N+](=O)[O-])ccc1O`, for which the TGI in the test on NCI-H460 lung, with KM12 colon, in the test with BT-549 breast, with 786-0 renal, with SF-295 CNS and with RXF 393 renal was above 100 µM throughout. The TGI was 93.9 µM in the test with UACC-62 melanoma, above 100 µM with SK-MEL-2 melanoma, 77.3 µM in the test on NCI/ADR-RES ovarian and above 100 µM in the test on SK-MEL-5 melanoma.

`CCCN=C1CCN(Cc2ccccc2)c2ccccc2N1`: the TGI in the test with NCI-H460 lung was 36.3 µM; with KM12 colon, 64.6 µM; in the test on BT-549 breast, 34.3 µM; with 786-0 renal, above 100 µM; in the test on SF-295 CNS, 95.3 µM; in the test with RXF 393 renal, 29.6 µM. Also, the TGI came to 26.2 µM with UACC-62 melanoma, 31.6 µM in the test on SK-MEL-2 melanoma, 34.4 µM in the test with NCI/ADR-RES ovarian and 28.2 µM with SK-MEL-5 melanoma.

Consider `COc1ccc(/C=C2\CCC(C)C3=C2NC(=S)NC3c2ccc(OC)c(OC)c2)cc1OC` (centres undefined), for which the TGI in the test with NCI-H460 lung was above 100 µM; in the test with KM12 colon, above 31.6 µM; with BT-549 breast, 26.2 µM; in the test with 786-0 renal, above 31.6 µM; with SF-295 CNS, above 31.6 µM; in the test with HOP-92 NSCLC it was above 100 µM. Besides, the TGI is above 31.6 µM in the test with UACC-62 melanoma, above 31.6 µM in the test on SK-MEL-2 melanoma, above 100 µM in the test with NCI/ADR-RES ovarian and 28.8 µM in the test on SK-MEL-5 melanoma.

Take `COc1ccc(N2C(=O)C3c4[nH]c5ccccc5c4C4CCC(C(C)(C)C)CC4C3C2=O)c(C)c1` (centres undefined): the TGI in the test with NCI-H460 lung, with KM12 colon, with BT-549 breast, in the test on 786-0 renal, in the test with SF-295 CNS and in the test with RXF 393 renal was above 100 µM each time. Also, the TGI in the test with UACC-62 melanoma, in the test on NCI/ADR-RES ovarian and in the test on SK-MEL-5 melanoma was above 100 µM in each case.

`N#CC1=C(N)N(c2ccccc2)C(c2ccco2)C1(C#N)C#N` (centres undefined): the TGI with KM12 colon was determined as 37.2 µM; in the test with BT-549 breast, 37.4 µM; with 786-0 renal, 35.1 µM; in the test on SF-295 CNS it was 93.9 µM; in the test with RXF 393 renal it was 37.1 µM; in the test on UACC-62 melanoma, 59.3 µM. For the same molecule, the TGI with SK-MEL-2 melanoma was 59.4 µM; in the test with NCI/ADR-RES ovarian, 56.2 µM; in the test with SK-MEL-5 melanoma, 32.3 µM.
